Converted amounts (≈) assume the structure as drawn. Read-outs that look alike come from different tables or passages of the source.
Tests used:
Experiment in all cases: In vitro antibacterial activity, agar dilution
Type in all cases: cell-based
Peptococcus magnus = settings: Finegoldia magna, Mueller-Hinton agar, read-out: Minimal Inhibitory Concentration
Method: (§1) The in vitro antibacterial effects of antibiotics LL-E19085α, LL-E19085β, LL-E19085γ, LL-E19085.zeta. and LL-E19085.eta. were determined by standard agar dilution methods against clinical isolates obtained from medical centers representing various geographical areas in the United States. The inoculum of each culture was approximately 1 to 5×10^4 colony forming units applied with a Steers multiple inocula replicator to plates containing the antibiotic in Mueller-Hinton agar. The agar was supplemented with about 5% sheep blood where required for the growth of the organism.

Bacteroides vulgaris = settings: ATCC29327, strain ATCC 29327, Mueller-Hinton agar, read-out: Minimal Inhibitory Concentration
Method: as §1

Bacteroides theta = settings: read-out: Minimal Inhibitory Concentration
Method: as §1

[1] = tested on: Streptococcus β-hemolyticus; settings: Mueller-Hinton agar
Method: as §1

Morganella morganii = settings: strain VGH 84-11, Mueller-Hinton agar, read-out: Minimal Inhibitory Concentration
Method: as §1

Citrobacter diversis = settings: strain MOR 84-3, Mueller-Hinton agar, read-out: Minimal Inhibitory Concentration
Method: as §1

Klebsiella pneumoniae = settings: read-out: Minimal Inhibitory Concentration
Method: as §1

Bacteroides fragilis = settings: ATCC25285, strain ATCC 25285, Mueller-Hinton agar, read-out: Minimal Inhibitory Concentration
Method: as §1

Peptococcus asacrolytis = settings: strain ATCC 29743; Mueller-Hinton agar; read-out: Minimal Inhibitory Concentration
Method: as §1

[2] = tested on: Staphylococcus saphrophiticus; settings: strain VGH 84-50, Mueller-Hinton agar, read-out: Minimal Inhibitory Concentration
Method: as §1

Serratia marcescens = settings: strain K 84-14, Mueller-Hinton agar, read-out: Minimal Inhibitory Concentration
Method: as §1

erratia rubidea = settings: strain UHL 86-4; Mueller-Hinton agar; read-out: Minimal Inhibitory Concentration
Method: as §1

Streptococcus pneumoniae = settings: read-out: Minimal Inhibitory Concentration
Method: as §1

Alcaligenes ssp. = settings: strain ISG 86-34, Mueller-Hinton agar, read-out: Minimal Inhibitory Concentration
Method: as §1

Clostridium perfringen = settings: ATCC13124, strain ATCC 13124, Mueller-Hinton agar, read-out: Minimal Inhibitory Concentration
Method: as §1

Staphylococcus aureus = settings: read-out: Minimal Inhibitory Concentration
Method: as §1

Proteus vulgaris = settings: strain CMC 84-35, Mueller-Hinton agar, read-out: Minimal Inhibitory Concentration
Method: as §1

[3] = tested on: Staphylococcus epidermidis; settings: strain IO 83-58, Mueller-Hinton agar, read-out: Minimal Inhibitory Concentration
Method: as §1

Clostridium differensis = settings: ATCC17858, strain ATCC 17858, Mueller-Hinton agar, read-out: Minimal Inhibitory Concentration
Method: as §1

Enterococcus = settings: read-out: Minimal Inhibitory Concentration
Method: as §1

Escherichia coli = tested on: Escherichia coli
Method: as §1

Pseudomonas aeruginosa = settings: strain 12-4-4, Mueller-Hinton agar, read-out: Minimal Inhibitory Concentration
Method: as §1

Enterobacter cloacae = settings: strain VGH 84-37, Mueller-Hinton agar, read-out: Minimal Inhibitory Concentration
Method: as §1

[4] = tested on: Streptococcus a-hemolyticus; settings: strain AMCH 88-84, Mueller-Hinton agar, read-out: Minimal Inhibitory Concentration
Method: as §1

Streptococcus faecalis = settings: Enterococcus faecalis, Mueller-Hinton agar, read-out: Minimal Inhibitory Concentration
Method: as §1

[5] = tested on: Staphylococcus hemolyticus; settings: read-out: Minimal Inhibitory Concentration
Method: as §1

[6] = tested on: Streptococcus b-hemolyticus; settings: strain AMCH 88-86, Mueller-Hinton agar, read-out: Minimal Inhibitory Concentration
Method: as §1

Bacteroides cereus = settings: read-out: Minimal Inhibitory Concentration
Method: as §1

Enterococcus Grp D = settings: strain WRVA 88-33, Mueller-Hinton agar, read-out: Minimal Inhibitory Concentration
Method: as §1

[7] = ATCC25923, strain ATCC 25923, Mueller-Hinton agar
[8] = ATCC29213, strain ATCC 29213, Mueller-Hinton agar
[9] = strain CMC 83-131, Mueller-Hinton agar
[10] = ATCC25922, strain ATCC 25922, Mueller-Hinton agar, read-out: Minimal Inhibitory Concentration

In the case of COc1cc2oc3c(c(=O)c2cc1OC)C(=O)c1c(ccc2cc4c(c(O)c12)C(=O)N1C(C)(C4)OC(=O)C1(C)COC(=O)CC(C)C)C3=O (stereo not drawn) [LL-E19085α], the MIC (Peptococcus magnus; ATCC14956, strain ATCC 14956) is reported as at most 0.06 µg/mL, the MIC (Peptococcus magnus; ATCC29328, strain ATCC 29328) is reported as at most 0.06 µg/mL and the MIC (Bacteroides vulgaris) is reported as at most 0.06 µg/mL. It also gave an MIC (Bacteroides theta; ATCC29741, strain ATCC 29741, Mueller-Hinton agar) of 4 µg/mL (≈ 5.97 µM), an MIC (Bacteroides theta; ATCC29742, strain ATCC 29742, Mueller-Hinton agar) of 4 µg/mL (≈ 5.97 µM) and an MIC ([1]; Streptococcus, strain C 203, read-out: Minimal Inhibitory Concentration) of at most 0.06 µg/mL. The “Minimal Inhibitory Concentration” value ([1]; strain VGH 84-60) was at most 0.06 µg/mL, the “Minimal Inhibitory Concentration” value ([1]; strain VGH 84-61) was at most 0.06 µg/mL and the “Minimal Inhibitory Concentration” value ([1]; strain VGH 84-62) was at most 0.06 µg/mL. The MIC (Morganella morganii) was over 128 µg/mL, the MIC (Citrobacter diversis) was over 128 µg/mL and the MIC (Klebsiella pneumoniae; strain AD, Mueller-Hinton agar) was over 128 µg/mL. The MIC (Bacteroides fragilis) was 16 µg/mL (≈ 23.9 µM), the MIC (Peptococcus asacrolytis) was at most 0.06 µg/mL and the MIC [2] was at most 0.06 µg/mL. The MIC (Serratia marcescens) was over 128 µg/mL, the MIC (erratia rubidea) was over 128 µg/mL and the MIC (Streptococcus pneumoniae; strain K 84-21, Mueller-Hinton agar) was at most 0.06 µg/mL. It also gave an MIC (Streptococcus pneumoniae; strain SV-1, Mueller-Hinton agar) of at most 0.06 µg/mL, an MIC (Alcaligenes ssp.) of over 128 µg/mL and an MIC (Clostridium perfringen) of at most 0.06 µg/mL. It also gave an MIC (Staphylococcus aureus; [7]) of 0.12 µg/mL (≈ 0.179 µM), an MIC (Staphylococcus aureus; [8]) of at most 0.06 µg/mL and an MIC (Staphylococcus aureus; strain CMC 83-127, Mueller-Hinton agar) of at most 0.06 µg/mL. For the same compound, the MIC (Staphylococcus aureus; [9]) was at most 0.06 µg/mL, the MIC (Staphylococcus aureus; strain CMC 83-132, Mueller-Hinton agar) was at most 0.06 µg/mL and the MIC (Staphylococcus aureus; strain SSC 82-57, Mueller-Hinton agar) was at most 0.06 µg/mL. For the same compound, the MIC (Staphylococcus aureus; strain Smith, Mueller-Hinton agar) was 0.12 µg/mL (≈ 0.179 µM), the MIC (Staphylococcus aureus; strain VGH 84-45, Mueller-Hinton agar) was at most 0.06 µg/mL and the MIC (Proteus vulgaris) was over 128 µg/mL. It also gave an MIC [3] of at most 0.06 µg/mL, an MIC (Clostridium differensis) of at most 0.06 µg/mL and an MIC (Enterococcus; strain CMC 83-72, Mueller-Hinton agar) of at most 0.06 µg/mL. It also gave an MIC (Enterococcus; strain IO 83-28, Mueller-Hinton agar) of at most 0.06 µg/mL, an MIC (Enterococcus; strain IO 83-40, Mueller-Hinton agar) of 0.12 µg/mL (≈ 0.179 µM) and an MIC (Enterococcus; strain VGH 84-65, Mueller-Hinton agar) of at most 0.06 µg/mL. It also gave an MIC (Enterococcus; strain VGH 84-68, Mueller-Hinton agar) of at most 0.06 µg/mL, an MIC (Escherichia coli; [10]) of over 128 µg/mL and an MIC (Escherichia coli; strain No. 311, Mueller-Hinton agar, read-out: Minimal Inhibitory Concentration) of over 128 µg/mL. The MIC (Pseudomonas aeruginosa) was over 128 µg/mL and the MIC (Enterobacter cloacae) was over 128 µg/mL.
COc1cc2oc3c(c(=O)c2cc1OC)C(=O)c1c(ccc2cc4c(c(O)c12)C(=O)N1C(C)(C4)OC(=O)C1(C)COC(C)=O)C3=O (centres unmarked) [LL-E19085γ] showed an MIC [4] of at most 0.008 µg/mL, an MIC (Streptococcus faecalis; strain ARUM 87-41) of 0.5 µg/mL (≈ 0.797 µM) and an MIC (Streptococcus faecalis; strain CMC 83-120) of 1 µg/mL (≈ 1.59 µM). It also gave an MIC (Streptococcus faecalis; strain VCH 84-69) of 0.03 µg/mL (≈ 0.0478 µM), an MIC (Streptococcus faecalis; strain VCI 85-30) of 0.06 µg/mL (≈ 0.0956 µM) and an MIC (Klebsiella pneumoniae; strain NEMC 87-271, Mueller-Hinton agar) of at least 16 µg/mL. It also gave an MIC (Streptococcus pneumoniae; strain CHBB 88-75, Mueller-Hinton agar) of at most 0.008 µg/mL, an MIC (Streptococcus pneumoniae; strain CHBM 88-70, Mueller-Hinton agar) of at most 0.008 µg/mL and an MIC (Streptococcus pneumoniae; strain TEX 85-2, Mueller-Hinton agar) of at most 0.008 µg/mL. It also gave an MIC (Staphylococcus aureus; [7]) of at least 0.008 µg/mL, an MIC (Staphylococcus aureus; [8]) of 1 µg/mL (≈ 1.59 µM) and an MIC (Staphylococcus aureus; [9]) of 16 µg/mL (≈ 25.5 µM). The MIC (Staphylococcus aureus; strain IVES 542, Mueller-Hinton agar) was 8 µg/mL (≈ 12.7 µM), the MIC (Staphylococcus aureus; strain K82-26, Mueller-Hinton agar) was at most 0.008 µg/mL and the MIC (Staphylococcus aureus; strain NEMC 87-69, Mueller-Hinton agar) was 4 µg/mL (≈ 6.37 µM). The MIC (Staphylococcus aureus; strain ROSE (MP), Mueller-Hinton agar) was 1 µg/mL (≈ 1.59 µM), the MIC (Staphylococcus aureus; strain VGH 84-47, Mueller-Hinton agar) was 1 µg/mL (≈ 1.59 µM) and the MIC ([5]; strain AVAH 88-1, Mueller-Hinton agar) was 8 µg/mL (≈ 12.7 µM). The MIC ([5]; strain AVAH 88-3, Mueller-Hinton agar) was 0.5 µg/mL (≈ 0.797 µM), the MIC (Enterococcus; strain CHBM 88-60, Mueller-Hinton agar) was 0.5 µg/mL (≈ 0.797 µM) and the MIC [6] was at most 0.008 µg/mL. It also gave an MIC (Escherichia coli; [10]) of over 16 µg/mL, an MIC (Escherichia coli; ATCC35218, strain ATCC 35218, Mueller-Hinton agar, read-out: Minimal Inhibitory Concentration) of over 16 µg/mL and an MIC (Escherichia coli; read-out: Minimal Inhibitory Concentration, strain D21, Mueller-Hinton agar) of at least 16 µg/mL. It also gave an MIC (Escherichia coli; strain D22, Mueller-Hinton agar, read-out: Minimal Inhibitory Concentration) of 16 µg/mL (≈ 25.5 µM), an MIC (Bacteroides cereus) of 0.5 µg/mL (≈ 0.797 µM) and an MIC (Enterococcus Grp D) of 0.5 µg/mL (≈ 0.797 µM).
